Results as given in US6589758B1, “Crystal of a kinase-ligand complex and methods of use” (priority 2000, dated 2003).
Read-outs that look alike come from different tables or passages of the source.

Columns and labels:
Lck = Lck (Homo sapiens, UniProt P06239); conditions: reported in ref [51]; cited from earlier work
[1] = tested on: TCR-induced IL-2 secretion from hPBL T-cells; experiment: T-cell activation: TCR-induced IL-2 secretion from hPBL T-cells (ELISA); format: cell-based; conditions: anti-CD3/anti-CD28 stimulation, 20 hours, FIG. 7B, read-out: IC50 inhibition of IL-2 production in human T-cell cultures
Procedure: T-cell activation. Whole blood was obtained from normal donors and human peripheral blood lymphocytes (hPBL) were isolated by ficol-hypaque density centrifugation. T-cells were then purified from the hPBL by negative selection using an R&D column following the manufacturers directions (R&D Systems, Minneapolis, Minn.). A 96-well flat-bottomed plate was coated with 10 μg/ml of goat anti-mouse (GAM)-IgG1 (Caltag, Burlingame, Calif.) in PBS overnight at 4C. The GAM-coated plate was flicked out and anti-CD3 mAb (UCHT-1, Coulter/Immunotech, Miami, Fla.) is added at 0.2 μg/ml in AIMV medium (Gibco, Grand Island, N.Y.) for 3 hr. at 37C. Purified T-cells were pre-incubated at 1×10^5/well in AIM V with or without compound for 30 minutes then transferred to the anti-CD3 capture plate. Finally, anti-CD28 (Pharmingen, San Diego, Calif.) in AIMV (150 ng/ml final) was added to each well. Cells were incubated for 20 hours at 37C in 5% CO2 then supernatants were tested by ELISA for cytokine levels (Endogen, Woburn, Mass.).

[2] = tested on: TCR-induced phosphotyrosine incorporation into TCR p23 ζ-chain and a 70 kDa protein, Jurkat cells; format: cell-based; conditions: FIG. 7C
Procedure: Phosphotyrosine western blotting. […] Cells were then transferred to 37° C. water bath for 1 minute. Stimulation was stopped by the addition of 5 volumes of cold PBS containing 200 μM sodium orthovanadate. Cells were spun down and lysed in 150 mM Tris/10 mM HEPES buffer, pH 7.3, containing 1% Triton X-100 and Complete protease inhibitor cocktail (Boehringer Mannheim, Germany) for 30 minutes on ice. […] Blots were probed with anti-phosphotyrosine (4G10, Upstate Biotechnology, Inc., Saranac Lake, N.Y.) and developed using ECL-plus following the manufacturers directions (Amersham, Arlington Heights, Ill.).

ZAP-70 = molecular target: T1, ZAP-70 (Homo sapiens, UniProt P43403); conditions: reported in ref [51]; read-out: IC50 against ZAP-70; cited from earlier work
T1 sequence (P43403 1-619): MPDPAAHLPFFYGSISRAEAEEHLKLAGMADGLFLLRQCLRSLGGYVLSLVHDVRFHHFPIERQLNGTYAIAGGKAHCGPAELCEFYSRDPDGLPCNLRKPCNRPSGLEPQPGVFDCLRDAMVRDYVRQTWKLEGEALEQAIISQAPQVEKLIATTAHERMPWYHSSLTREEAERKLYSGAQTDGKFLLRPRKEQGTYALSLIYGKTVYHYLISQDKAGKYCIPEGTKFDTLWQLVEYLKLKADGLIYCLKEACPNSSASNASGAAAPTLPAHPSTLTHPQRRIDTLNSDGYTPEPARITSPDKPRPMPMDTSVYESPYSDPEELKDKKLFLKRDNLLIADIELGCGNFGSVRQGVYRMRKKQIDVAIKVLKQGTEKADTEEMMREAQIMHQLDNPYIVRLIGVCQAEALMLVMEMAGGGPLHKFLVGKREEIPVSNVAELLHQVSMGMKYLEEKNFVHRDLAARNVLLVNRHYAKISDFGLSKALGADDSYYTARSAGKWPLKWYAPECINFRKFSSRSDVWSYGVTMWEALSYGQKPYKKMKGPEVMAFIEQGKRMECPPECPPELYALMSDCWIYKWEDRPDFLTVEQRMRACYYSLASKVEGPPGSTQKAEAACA

Chain of Lck (P06239 whole entry, species assumed): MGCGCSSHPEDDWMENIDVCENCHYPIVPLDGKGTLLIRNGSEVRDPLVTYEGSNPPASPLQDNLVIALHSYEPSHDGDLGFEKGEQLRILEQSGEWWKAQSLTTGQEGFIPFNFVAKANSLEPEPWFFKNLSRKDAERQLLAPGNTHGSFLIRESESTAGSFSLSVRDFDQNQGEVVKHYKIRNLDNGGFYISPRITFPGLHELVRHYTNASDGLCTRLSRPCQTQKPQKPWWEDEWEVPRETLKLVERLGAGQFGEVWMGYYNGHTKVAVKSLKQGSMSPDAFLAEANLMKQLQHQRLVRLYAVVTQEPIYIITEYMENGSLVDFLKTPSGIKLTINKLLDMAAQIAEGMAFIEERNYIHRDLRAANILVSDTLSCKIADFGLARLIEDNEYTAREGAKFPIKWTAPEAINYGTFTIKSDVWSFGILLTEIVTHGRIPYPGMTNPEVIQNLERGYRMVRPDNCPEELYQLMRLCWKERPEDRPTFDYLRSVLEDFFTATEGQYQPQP

For Cc1ccc(-c2nn(C(C)(C)C)c3ncnc(N)c23)cc1 [PP1], the “inhibitory activity against Lck compared with PP2” value (Lck) is listed as “approximately the same inhibitory activity”.

In the case of CC(C)(C)n1nc(-c2ccc(Cl)cc2)c2c(N)ncnc21 [PP2], the IC50 [1] is reported as 600 nM, the “inhibition of Lck-dependent phosphorylation of the TCR ζ-chain (p23)” value [2] is reported as “dose-dependent inhibition” and the “inhibition of phosphorylation of a 70 kD protein (likely ZAP-70)” value [2] is reported as “inhibited”. For the same compound, the IC50 (ZAP-70) was ≥ 100000 nM.

With CN[C@@H]1C[C@H]2O[C@@](C)([C@@H]1OC)n1c3ccccc3c3c4c(c5c6ccccc6n2c5c31)C(=O)NC4 [staurosporine] the IC50 ([1]; Homo sapiens, T-cell) was 60 nM.
